Test results as given in patent publication US20050119283A1, “Treatment of circadian rhythm disorders with NPY Y5 receptor antagonist” (Pfizer Inc, priority 2003, published 2005).
Several values for one entry are separate records, joined by “and”; a condition that tells them apart may be missing. Equal entries are not always repeated.

Legend:
[1] = test system: neuronal firing in hamster SCN slices; assay: NMDA-induced phase advances of neuronal firing in hamster SCN slices maintained in vitro; assay type: cell-based; conditions: for Phase shift: mean ± S.E.M.; for reversal of the effect of NPY on NMDA-induced phase advances, % of the NMDA alone experiment: antagonist 10 μM with NMDA 100 μM + NPY 2 ng/ml, in vitro
Procedure: Brain slices containing the SCN were taken on a nominally “preparatory day”. During the subsequent night, at 3-3.5 hours before the scheduled onset of light, drugs were administered to the bath. Neuronal recordings were made beginning early the next day, nominally the “experimental day”, and continued until the peak firing rate could be established. A shift in this peak to an earlier point in time is referred to as a “phase advance”.
Phase advances were measured in vitro by sampling spontaneous activity from neurons in a brain slice preparation of the suprachiasmatic nucleus, herein abbreviated SCN, that is known to contain the circadian clock. The term “brain slice preparation”, as used herein, is defined as a cut section of brain that is placed in a plastic chamber and kept fully functioning by providing it with ACSF (artificial cerebrospinal fluid) that has been warmed and infused with oxygen. Recordings of the spontaneous activity of neurons in the SCN brain slice preparation follow a 24-hour pattern of activity that marks the circadian rhythm. Following application of N-methyl-D-aspartate (NMDA), a compound that mediates the phase advances elicited by light in vivo, neurons in the SCN shift their pattern of firing in vitro to reflect a phase advance. Application of NPY blocks the phase advances elicited by NMDA; NPY Y5 antagonists of formula Ia and IIa block these effects of NPY.
Animals and tissue preparation. Male golden hamsters (LVG, Charles River, 40-60 days old) were housed under a light:dark schedule of 14 hours of constant light and 10 hours of constant dark, with food and water available ad libitum. Hamsters were administered an overdose of halothane anesthesia and decapitated during the subjective day. Hypothalamic slices (500 μm) containing the suprachiasmatic nucleus (SCN) were placed in a gas-fluid interface slice chamber (Medical Systems BSC with Haas top), continuously bathed (1 ml/min) in artificial cerebrospinal fluid (ACSF) containing 125.2 mM NaCl, 3.8 mM KCl, 1.2 mM KH2PO4, 1.8 mM CaCl2, 1 mM MgSO4, 24.8 mM NaHCO3, 10 mM glucose. ACSF (pH 7.4) was supplemented with an antibiotic (gentamicin, 50 mg/l) and a fungicide (amphotericin, 2 mg/l) and maintained at 34.5° C. Warm, humidified 95% oxygen:5% carbon dioxide was continuously provided to the slice preparation.
Electrophysiological studies. Extracellular single unit activity of SCN cells was detected with glass micropipette electrodes filled with ACSF, advanced through the slice using a hydraulic microdrive. The signal was further amplified and filtered, and was continuously monitored by an oscilloscope and audio monitor. Firing rate was analyzed using data acquisition software and a customized program for calculation of descriptive statistics. The term “firing rate”, as used herein, is defined as the rate at which the neurons produce an action potential during the period of recording and is indicative of their level of functioning. Firing rates in the range of 1 to 10 Hz are typical for SCN neurons. A number of experiments in each condition were recorded “blind” where the person recording data had no knowledge of the treatment. One slice was recorded from each animal. A total number of 42 slices was recorded.
Data analysis. Data were initially grouped into 1 h bins and an analysis of variance test was used to determine if any bins differed from the others. If the analysis of variance test indicated significant differences, data were smoothed using 1 h running means with a 15-minute lag. The time of the middle of the 1 h bin with the highest mean firing rate after processing by this smoother was taken as the time of peak firing rate for that slice. Phase advances of individual slices were measured relative to the average time of peak firing of control slices. Significant differences between groups (p<0.05) were determined by ANOVA followed by Bonferroni method (for all vs control comparisons). Means are reported±standard error. […]

[2] = test system: hamster wheel running activity; assay: Light-induced phase advances of hamster wheel running activity (in vivo); conditions: for Phase shift: mean ± S.E.M.
Source text: The in vivo experimental design included recording a behavioral overt rhythm such as running-wheel activity and exposing the animals to an amount of light that is known to produce a phase advance in this pattern of activity. The term “running-wheel activity”, as used herein, is defined as physical activity measured as revolutions of a wheel permanently positioned in the animals' cages and rotated as the animals run in them. The onset of such behavior is a well regarded marker of timing in circadian rhythms. Application of NPY through a cannula aimed directly into the SCN blocks the ability of light to produce a phase advance; NPY Y5 antagonists of formula IIa block these effects of NPY. Furthermore, when given in the absence of NPY, NPY Y5 antagonists of formula IIa enhance the ability of light to produce phase advances.
Surgery. For in vivo treatment, hamsters (80-100 g) were deeply anesthetized with nembutal (80 mg/kg, i.p.), administered an analgesic (buprenorphine, 0.05 mg/kg, s.c.) and mounted in a stereotaxic instrument in order to rigidly fix the skull. They were surgically implanted with a 25 gauge stainless steel guide cannula aimed at the SCN. After a week of recovery under LD 14:10 (14 hours of light, 10 hours of dark), animals were individually transferred to cages (48×27×20 cm) equipped with wheels. Wheel running activity was recorded with ClockLab hardware and software (Actimetrics, Evanston, Ill.).
Drugs and routes of administration. Animals were briefly anesthetized in order to minimize the stress induced by restraint during cannula injections with a mixture of oxygen and isoflurane administered by means of a gas anesthesia machine (2.5% isoflurane to induce anesthesia, 1.5% to maintain anesthesia through a nose-mask). NPY (0.2 μL, 234 μM) was dissolved in ACSF and administered through a cannula with a 1 μL Hamilton syringe connected with polyethylene tubing to a 13.1 mm stainless steel injector cannula (30 gauge). NPY Y5 receptor antagonist (0.6 ml, 10 mg/kg) was dissolved in 32% 2-hydroxypropyl-B-cyclodextrin, and injected s.c. 30 minutes before NPY and/or light stimulation. Light pulses (5 min, 150 lux) were delivered individually by placing animals under two white fluorescent tubes (Phillips, model F30T12); the timing of the light pulses was selected to be in the animals' dark period, 3.5 hours before lights would normally come on.
Animals were allowed at least 10 days under LD (14 hours of light, 10 hours of dark) in order to establish a stable rhythm, and then housed under constant dim red light (DRL) provided by a safelight lamp (Coastar, Inc. <1 lux). Two sets of experiments comprising five treatments were delivered in a counterbalanced design: NPY alone, NPY+light; light alone, light+NPY Y5 antagonist, NPY+NPY Y5 antagonist+light. After two treatments (only one of them involving light stimulation), animals were resynchronized to the previous LD cycle for 7-10 days, and then exposed again to dim red light for the second set of treatments.
Data analysis. For in vivo experiments, data were automatically collected and analyzed with Clocklab software bundle (ActiMetrics Software, Evanston, Ill.). Two investigators blind to the treatment analyzed phase advance magnitudes. Statistical analyses were performed by means of ANOVA followed by Student-Newman-Keul's test.
Phase advances (h) were calculated as the difference in the onset of running behavior in animals kept in dim red light relative to those exposed to combination of light and/or drug treatments. Means±S.E.M. for N=7-12. • a. Light alone experiment in which the animals are exposed to light 3 hours before the scheduled beginning of the animals' period of normal light. There is a resulting phase advance of 1.33 hours. • b. Formula IIa+light experiment in which the animals are pretreated with NPY Y5 antagonist of formula IIa and then exposed to light 3 hours before the scheduled beginning of the animals' period of normal light. […]

[3] = substance alone, bath application 3.5 hours before scheduled light, NPY 2 ng/ml, NMDA 100 μM, antagonist 10 μM 60 min, N=2-6
[4] = substance + light pulse, Formula IIa 10 mg/kg s.c. 30 minutes prior to light, NPY 0.2 μL via cannula
[5] = substance alone, no light, Formula IIa 10 mg/kg s.c., NPY 0.2 μL via cannula to SCN, N=7-12
[6] = NMDA 100 μM + NPY 2 ng/ml + antagonist 10 μM, 60 minute bath application
[7] = Formula IIa 10 mg/kg s.c. + NPY via cannula + light

Compound	Phase shift [1, 3]	blockade of the NMDA-induced phase advance by NPY ([1]; NMDA 100 μM + NPY 2 ng/ml)	Phase shift ([1]; NMDA 100 μM + NPY 2 ng/ml)	effect on the phase of neuronal firing compared to the control experiment ([1]; substance alone)	blockade of the phase advance compared to the light alone experiment ([2]; NPY via cannula + light)	Phase shift [2, 4]	effect on the phase of wheel running activity ([2]; substance alone, no light)	Phase shift [2, 5]	Phase shift [1, 6]	reversal of the effect of NPY on NMDA-induced phase advances, % of the NMDA alone experiment [1]	reversal of the effect of NPY on NMDA-induced phase advances, % of the NMDA alone experiment ([1]; listed as formula Ia)	reversal of the effect of NPY on NMDA-induced phase advances, % of the NMDA alone experiment ([1]; listed as formula IIa)	enhancement of the light-induced phase advance, % of the light alone experiment ([2]; Formula IIa 10 mg/kg s.c. 30 minutes prior to light, absence of NPY)	reversal of the effects of NPY on light-induced phase advances, % of the light alone experiment [2, 7]	reversal of the effects of NPY on light-induced phase advances, % of the light alone experiment ([2]; Formula IIa 10 mg/kg s.c. + NPY via cannula + light, listed as formula IIa)	Phase shift [2, 7]	Phase shift ([2]; Formula IIa 10 mg/kg s.c. + NPY via cannula, no light)	effect on the phase of wheel running activity ([2]; formula IIa 10 mg/kg s.c. + NPY, no light)
CN[C@H](CC(=O)O)C(=O)O [NMDA, N-methyl-D-aspartate, reference compound]	2.89 h and 2.89 ± 0.08 h																	
Neuropeptide Y [NPY, reference compound]	-0.18 ± 0.17 h	complete blockade	-0.07 ± 0.09 h	no effect	complete blockade	-0.03 ± 0.20 h	no effect	-0.04 ± 0.11 h										
O=C1OC2(CCN(C(=O)Nc3ccc(C(F)(F)F)cn3)CC2)c2ccccc21 [Formula Ia]	0.32 ± 0.35 h			no effect					2.03 ± 0.88 h	about 70%	70%							
O=C1OC2(CCN(c3nc4cc(C(F)(F)F)ccc4[nH]3)CC2)c2ccccc21 [Formula IIa]	0.07 ± 0.07 h			no effect		2.11 ± 0.16 h	no effect	-0.12 ± 0.04 h	2.73 ± 0.16 h	about 95%		95%	160%	about 90%	89%	1.18 ± 0.27 h	-0.20 ± 0.07 h	no effect
